According to patent US8729047B2, “Compositions for inhibiting redox-sensitive GTPases” (Board of Regents, The University of Texas System, priority 2010, dated 2014):
Read-outs that look alike come from different tables or passages of the source.

How the values were obtained:
HCCLM3 cells = experiment: QCM Cell Invasion Assay, time-dependent motility; format: cell-based, human; conditions: 6-TG in combination with a NO donor for 3 days; FIG. 14B
Description: (§1) FIG. 14. Determination of cell invasiveness in the presence and absence of thiopurines and/or redox agents.
(§2) The Colorimetric-based QCM Cell Invasion Assay kit (Millipore, Billerica, Mass.) was used for the time-dependent cell migration assay of SUM149, SW480, and HCCLM3 cells. Serum-free sample cells (2×10^5 cells/mL) were prepared as indicated in the section of the matrigel invasion assay. The serum-free sample cells (0.25 mL) were loaded to the rehydrated upper chamber. […] Serum-free or serum-containing media (0.5 mL) was added to the lower chamber. The plate covered was then incubated for one to four days at 37° C. in a 10% CO2 incubator. […] The fraction of cells migrated from the upper chamber to the lower chamber was then measured colorimetrically according to the procedure provided by the manufacture.

SW480 cells = experiment: QCM Cell Invasion Assay, time-dependent motility; format: cell-based, human; conditions: 6-TG in combination with a NO donor for 3 days; FIG. 14B
Description: as §1, §2

SUM149 cells = experiment: MTT cell viability and caspase-3/8 assays; format: cell-based, human
Text: FIG. 25. […] (B) Caspase-3/8 assay: the apoptotic activity of sample cells treated with the apoptotic inducer was set to be 100%, and other results were then expressed as normalized values against the mean value associated with the treatment with the apoptotic inducer. For both (A) and (B), all values represent the mean values and standard error values from triplicate measurements.

Rac1 = Rac1 (Homo sapiens, UniProt P63000); experiment: Competitive binding assay, [3H]GDP-loaded Rho protein titrated with 6-TGDP (FIG. 16A); set-up: made in house; host or cells: E. coli
Description: (§3) FIG. 16. Kinetic properties of RhoC with 6-TGDP in the presence or absence of a redox agent. All kinetic analyses are described elsewhere herein. (A) ^appKD values of Rac1, RhoA, RhoC, and RhoC C20S for 6-TGDP were estimated to be 7.9, 11.6, 11.8, and 11.2 μM, respectively. ^trueKD values of Rac1, RhoA, […] for 6-TGDP were then calculated to be 5.1, 10.8, 11.1, and 10.5 μM, respectively, by using a compensation equation, ^trueKD for 6-TGDP=^appKD for 6-TGDP/(1+[[^3H]GDP]/^trueKD for GDP) (Heo, J., and Hong, I. (2010) Biochemistry 49, 3965-3976), in conjunction with the values given. […] The GDP dissociation rates from RhoC C20S by NO, .NO2, and N2O3 were estimated to be 0.02×10^−3, 0.05×10^−3, and 0.04×10^−3 s^−1, respectively. […] (D) ^appKD values of RhoC for [^3H]GDP in the presence or absence of DTT were estimated to be 22.4 μM and […], respectively. ^appKD values of C20S RhoC for [^3H]GDP in the presence or absence of DTT were determined to be 24.8 μM and 25.2 μM, respectively. The regression values associated with these fits were >0.8595. All data points associated with vertical standard error bars shown in this figure are the mean values of triplicate measurements.
Transition metal-free assay buffer and vials as described in a previous study (Heo et al. Biochemistry 49, 3965-3976 (2010)) were used for all kinetic assays. The kinetic assay buffer contains the highest grade of 50 mM NaCl, 10 mM MgCl2, 1 mM EDTA, and 0.1 mM DTPA in 50 mM TrisHCl (pH 7.4). Before performance of any of the assays, all protein samples also were dialyzed with a metal-free buffer under anaerobic conditions. As with RhoA and Rac1 (Heo et al. J. Biol. Chem. 280, 31003-31010 (2005)), C20S RhoC were expressed in E. coli and purified using anionic and size exclusion columns.
(a) A competitive binding assay was performed to determine the binding affinity of Rho GTPase and 6-TGDP. The radiolabeled [^3H]GDP-loaded Rho protein (1 μM) was titrated with various concentrations of 6-TGDP. The titrated Rho protein sample then was spotted onto a nitrocellulose membrane. Each membrane was washed three times with the assay buffer, and radioactivity was determined using a Beckman-Coulter scintillation counter. The radioactivity of the sample (Rho protein-bound [^3H]GDP) was converted into, and thus plotted, as the fraction of mol GDP per mol total Rho protein. The apparent dissociation constant (^appKD) of the Rho protein with [^3H]GDP in the presence of 6-TGDP was determined by using Prism software to fit the titration curve to a hyperbola.

A7r5 cells = experiment: Viability / cytotoxicity of A7r5 cells; format: cell-based, rat; conditions: 5 days of treatment; FIG. 24
Text: FIG. 24. Effects of 6- and 8-TG on A7r5 cells. Treatment of cells with 6- or 8-TG is described in FIGS. 19 and 21. The image associated with the effect of 6- or 8-TG was taken after 5 days of treatment.

RhoA = molecular target: T1, RhoA (Homo sapiens, UniProt P61586); conditions: determined previously; read-out: trueKD GDP; cited from earlier work
T1 construct: made in house; host or cells: E. coli

C20S RhoC = molecular target: T2, C20S RhoC (Homo sapiens, UniProt P08134, C20S); experiment: Titration of .NO2-treated RhoC-6-TGDP complex with [3H]GDP with/without DTT (FIG. 16D); format: binding; conditions: .NO2-treated 6-TGDP C20S RhoC complex, read-out: appKD for [3H]GDP
T2 construct: made in house; host or cells: E. coli
Description: as §3, with “All data points associated with vertical standard error bars shown in this figure are the mean values of triplicate measurements.” left out
(§4) (d) The effect of .NO2 on the dissociation of 6-TGDP from RhoC was determined by treating the RhoC-6-TGDP complex titration with various concentrations of [^3H]GDP in the presence and absence of a reducing agent of either dithiothreitol (DTT) or β-mercaptoethanol. […]

RhoC = RhoC (Homo sapiens, UniProt P08134); experiment: as above; format: binding; set-up: made in house; host or cells: E. coli; conditions: presence of DTT; .NO2-pretreated 6-TGDP-loaded RhoC; read-out: appKD for [3H]GDP
Description: as §3, with “All data points associated with vertical standard error bars shown in this figure are the mean values of triplicate measurements.” left out
as §4

T2 sequence (P08134 whole entry C20S): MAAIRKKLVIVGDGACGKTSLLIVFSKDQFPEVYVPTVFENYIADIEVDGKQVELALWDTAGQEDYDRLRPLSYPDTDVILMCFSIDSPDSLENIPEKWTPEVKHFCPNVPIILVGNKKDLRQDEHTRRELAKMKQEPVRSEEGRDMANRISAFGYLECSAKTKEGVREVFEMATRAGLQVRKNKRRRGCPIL
Chain of RhoC (P08134 whole entry): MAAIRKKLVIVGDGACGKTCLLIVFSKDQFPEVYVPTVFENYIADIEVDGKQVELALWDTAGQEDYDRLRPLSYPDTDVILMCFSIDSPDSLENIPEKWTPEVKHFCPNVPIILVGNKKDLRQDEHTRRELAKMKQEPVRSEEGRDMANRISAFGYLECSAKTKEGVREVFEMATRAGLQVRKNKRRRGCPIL
T1 sequence (P61586 whole entry, species assumed): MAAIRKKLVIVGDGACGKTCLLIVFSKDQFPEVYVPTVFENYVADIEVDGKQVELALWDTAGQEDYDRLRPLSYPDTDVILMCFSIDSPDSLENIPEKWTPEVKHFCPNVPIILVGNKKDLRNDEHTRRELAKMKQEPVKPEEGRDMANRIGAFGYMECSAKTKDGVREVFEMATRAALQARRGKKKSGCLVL

Question: With `Nc1nc2nc[nH]c2c(=S)[nH]1` [6-TG, 6-thioguanine] as the compound, how does the “most of the invasive motility” value (HCCLM3 cells) read?
Answer: Its value is “terminated”.

Question: And the “most of the invasive motility” value (SW480 cells)?
Answer: Its value is “terminated”.

Question: And the “apoptotic effect (caspase, FIG. 25B)” value (SUM149 cells; 6-TG)?
Answer: The value was “minimal”.

Question: What about the “viability and caspase activity” value (SUM149 cells; 6-TG and DETA/NO, FIG. 25) of the same compound?
Answer: Its value is “minimally affected”.

Question: And the “cell viability (MTT, FIG. 25A)” value (SUM149 cells; 6-TG for 3 days)?
Answer: The value was “minimally affected”.

Question: Which results are given for `Nc1nc2c(ncn2[C@@H]2O[C@H](COP(=O)(O)OP(=O)(O)O)[C@@H](O)[C@H]2O)c(=S)[nH]1` [6-TGDP, 6-thioguanosine diphosphate]?
Answer: Kd (Rac1; [3H]GDP-loaded Rho protein 1 μM titrated with 6-TGDP, read-out: appKD for 6-TGDP): 7.9 µM; Kd (Rac1; calculated by compensation equation, read-out: trueKD for 6-TGDP): 5.1 µM

Question: Which “viability / cytotoxicity of A7r5 cells” value (A7r5 cells) does the source give for `Nc1nc2[nH]c(S)nc2c(=O)[nH]1` [8-TG, 2-amino-8-mercapto-1H-purin-6(9H)-one] here?
Answer: Its value is “did not alter the viability”.

Question: Which Kd (RhoA) does the source give for `Nc1nc2c(ncn2[C@@H]2O[C@H](COP(=O)(O)OP(=O)(O)O)[C@@H](O)[C@H]2O)c(=O)[nH]1` [GDP] here?
Answer: Its Kd is 13 µM.

Question: And the Kd (C20S RhoC; absence of DTT)?
Answer: Its Kd is 25.2 µM.

Question: And the Kd (C20S RhoC; presence of DTT)?
Answer: The Kd was 24.8 µM.

Question: And the Kd (RhoC)?
Answer: The Kd was 22.4 µM.
